# In patent publication EP1242382B1, “TRICYCLIC PROTEIN KINASE INHIBITORS” (Wyeth, priority 1999, dated 2001):
# Columns and labels:
# A431 = assay: Inhibition of cancer cell growth as measured by cell number (Sulforhodamine B); format: cell-based; conditions: Homo sapiens, A-431; 48 hours exposure
# Procedure: (§1) Human tumor cell lines are plated in 96-well plates (250 µl/well, 1-6 x 10^4 cells/ml) in RPMI 1640 medium, containing 5% FBS (Fetal Bovine Serum). Twenty four hours after plating, test compounds are added at various concentrations. After 48 hours exposure to test compounds, cells are fixed with trichloroacetic acid, and stained with Sulforhodamine B. After washing with trichloroacetic acid, bound dye is solubilized in 10 mM Tris base and optical density is determined using plate reader. Under conditions of the assay the optical density is proportional to the number of cells in the well. […] The test procedure is described in detail by Philip Skehan et. al, J. Natl. Canc. Inst., 82, 1107-1112 (1990). […] Information about some of the cell lines used in these test procedures is available from the American Type Tissue Collection: Cell Lines and Hybridomas, 1994 Reference Guide, 8th Edition.
# SK-BR3 = assay: as above; format: cell-based; conditions: Homo sapiens, SK-BR-3; 48 hours exposure
# Procedure: as §1
# MDA-MB-435 = assay: as above; format: cell-based; conditions: Homo sapiens, 48 hours exposure
# Procedure: as §1
# SW620 = assay: as above; format: cell-based; conditions: Homo sapiens, SW-620; 48 hours exposure
# Procedure: as §1
# [1] = biological target: T1, EGF-R Kinase (recombinant enzyme) (Homo sapiens, UniProt P00533); assay: Inhibition of Epidermal Growth Factor Receptor Kinase (EGF-R) using recombinant enzyme; format: biochemical; conditions: RR-SRC peptide substrate, (a) = average of two tests
# T1 construct: EGFR cDNA encoding amino acids 645 - 1186 preceded by Met-Ala-(His)6; made in house; host or cells: Sf9 insect cells, recombinant baculovirus vHcEGFR52
# T1 sequence (P00533 669-1210): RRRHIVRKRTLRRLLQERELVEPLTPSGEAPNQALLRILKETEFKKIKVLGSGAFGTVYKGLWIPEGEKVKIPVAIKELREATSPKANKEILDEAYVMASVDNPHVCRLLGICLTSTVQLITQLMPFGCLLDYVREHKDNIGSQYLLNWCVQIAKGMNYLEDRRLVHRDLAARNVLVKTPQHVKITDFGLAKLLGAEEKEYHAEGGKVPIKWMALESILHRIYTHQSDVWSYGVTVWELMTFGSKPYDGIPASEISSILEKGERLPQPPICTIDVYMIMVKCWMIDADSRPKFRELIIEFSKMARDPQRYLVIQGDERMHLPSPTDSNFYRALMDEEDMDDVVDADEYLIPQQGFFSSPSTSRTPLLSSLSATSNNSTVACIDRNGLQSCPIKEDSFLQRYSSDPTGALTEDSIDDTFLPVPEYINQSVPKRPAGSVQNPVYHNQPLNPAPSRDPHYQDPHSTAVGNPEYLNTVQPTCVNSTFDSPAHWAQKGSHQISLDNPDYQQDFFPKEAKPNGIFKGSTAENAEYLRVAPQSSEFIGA
# Procedure: Representative test compounds are evaluated in a standard pharmacological test procedure to measure their ability to inhibit the phosphorylation of the tyrosine residue of a peptide substrate catalyzed by the enzyme epidermal growth factor receptor kinase. […] The enzyme used in this assay is the His-tagged cytoplasmic domain of EGFR. […] Sf9 cells in 100 mm plates are infected at a multiplicity of infection of 10 pfu/cell and cells are harvested 48 h post infection. A cytoplasmic extract is prepared using 1% Triton X-100 and applied to Ni-NTA column. After washing the column with 20 mM imidazole, HcEGFR is eluted with 250 mM imidazole (in 50 mM Na2HPO4, pH 8.0, 300 mM NaCl). Fractions collected are dialyzed against 10 mM HEPES, pH 7.0, 50 mM NaCl, 10% glycerol, 1ug/mL antipain and leupeptin and 0.1 mM Pefabloc SC. The protein is frozen in dry ice/methanol and stored -70°C.
# Test compounds are made into 10 mg/mL stock solutions in 100% dimethylsulfoxide (DMSO). Prior to experiment, stock solutions are diluted to 500 uM with 100% DMSO and then serially diluted to the desired concentration with HEPES buffer (30 mM HEPES pH 7.4).
# For the enzyme reaction, 10 uL of each inhibitor (at various concentrations) are added to each well of a 96-well plate. To this is added 3 uL of enzyme (1:10 dilution in 10mM HEPES, pH 7.4 for final conc. of 1:120). This is allowed to sit for 10 min on ice and is followed by the addition of 5 ul peptide (80 uM final conc.), 10ul of 4X Buffer containing 50 mM HEPES (pH 7.4), 200 mM Na3VO4, 40mM MnCl2, 80 uM ATP, 0.25 uL ^33P-ATP (>2500 Ci/mmol; Amersham) and 12 uL H2O. The reaction is allowed to run for 90 min at room temperature and is followed by spotting the entire volume onto precut P81 filter papers. The filter discs are washed 2X with 0.5% phosphoric acid and radioactivity is measured using a liquid scintillation counter.
# The % inhibition of the test compound is determined for at least three different concentrations and the IC50 value is evaluated from the dose response curve. […] CPM(control) is in units of counts per minute and is a number expressing the amount of radiolabled ATP (γ-^33P) incorporated into the RR-SRC peptide substrate by the enzyme after 90 minutes at room temperature in the absence of test compound as measured by liquid scintillation counting. The CPM values are corrected for the background counts produced by ATP in the absence of the enzymatic reaction.
# Raf-1 (c-Raf) = biological target: T2, Raf-1 (c-Raf) (Homo sapiens, UniProt P04049); assay: Raf1 kinase cascade assay procedure; format: biochemical
# T2 construct: Sf9 insect cell lysate containing full length 6his-tagged recombinant human c-Raf; host or cells: c-Raf: Sf9 insect cell lysate; MEK1 and MAPK: E. coli
# T2 sequence (P04049 whole entry): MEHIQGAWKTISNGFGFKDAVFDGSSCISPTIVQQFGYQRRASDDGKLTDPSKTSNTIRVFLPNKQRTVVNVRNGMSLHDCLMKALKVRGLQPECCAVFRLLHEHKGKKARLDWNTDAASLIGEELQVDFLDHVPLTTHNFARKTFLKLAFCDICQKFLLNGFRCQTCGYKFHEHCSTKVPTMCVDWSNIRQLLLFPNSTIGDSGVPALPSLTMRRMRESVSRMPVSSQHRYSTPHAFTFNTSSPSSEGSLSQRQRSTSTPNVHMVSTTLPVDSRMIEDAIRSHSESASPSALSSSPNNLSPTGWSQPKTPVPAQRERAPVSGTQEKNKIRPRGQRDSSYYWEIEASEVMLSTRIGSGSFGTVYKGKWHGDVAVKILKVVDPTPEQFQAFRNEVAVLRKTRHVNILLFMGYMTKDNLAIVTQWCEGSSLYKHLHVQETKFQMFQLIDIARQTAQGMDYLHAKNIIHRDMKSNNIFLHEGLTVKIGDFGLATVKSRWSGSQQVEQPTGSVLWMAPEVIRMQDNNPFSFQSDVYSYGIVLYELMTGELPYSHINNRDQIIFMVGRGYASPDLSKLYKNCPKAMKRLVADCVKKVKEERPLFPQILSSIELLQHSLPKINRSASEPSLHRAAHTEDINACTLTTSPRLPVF
compound,measurement,setting,value
"COc1cc2cc3c(Nc4ccc(OCc5ccccc5)c(Cl)c4)c(C#N)cnc3cc2cc1OCCN1CCOCC1 [Example 218, 4-(4-Benzyloxy-3-chlorophenylamino)-7-methoxy-8-(2-morpholin-4-yl-ethoxy)benzo[g]quinoline-3-carbonitrile]",IC50,A431,4.7 µg/mL
same,IC50,SK-BR3,3.5 µg/mL
same,IC50,MDA-MB-435,33.5 µg/mL
same,IC50,SW620,11.6 µg/mL
same,IC50,[1],5.3 nM
same,IC50,Raf-1 (c-Raf),660 nM
